Measurements as given in PubChem BioAssay (NCI).
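Test compounds were applied to cells in 96-well plates for 48 hours at 5 doses. GI50: concentration for 50% inhibition of growth. The concentration for full growth arrest is given as TGI.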

Experiments:
Test in all cases: growth of human tumour cells (NCI), 48 h
HOP-62 NSCLC = test system: HOP-62 NSCLC
RPMI-8226 leukemia = test system: RPMI-8226 leukemia
CAKI-1 renal = test system: CAKI-1 renal
M14 melanoma = test system: M14 melanoma
ACHN renal = test system: ACHN renal
NCI-H522 lung = test system: NCI-H522 lung
NCI-H23 lung = test system: NCI-H23 lung
TK-10 renal = test system: TK-10 renal

Compound | TGI (HOP-62 NSCLC) | TGI (RPMI-8226 leukemia) | TGI (CAKI-1 renal) | TGI (M14 melanoma) | TGI (ACHN renal) | TGI (NCI-H522 lung) | TGI (NCI-H23 lung) | TGI (TK-10 renal) | GI50 (RPMI-8226 leukemia) | GI50 (CAKI-1 renal) | GI50 (M14 melanoma) | GI50 (ACHN renal) | GI50 (NCI-H23 lung) | GI50 (TK-10 renal)
C=C1c2[nH]c3ccccc3c2CC(C(=O)O)N1C(O)c1ccc(S(=O)(=O)O)cc1 (stereo not given) | > 100 µM | > 100 µM | > 100 µM | > 100 µM | > 100 µM | > 100 µM | > 100 µM | > 100 µM | – | – | – | – | – | –
CCc1nc2ccccc2c(=O)n1/N=C(\N=Nc1ccc(Cl)cc1)c1ccccc1 | 69.4 µM | > 100 µM | 46.4 µM | > 100 µM | > 92.4 µM | > 69.3 µM | > 100 µM | 78.3 µM | – | – | – | – | – | –
O=C1NC(=O)C2C1C1C=C3c4ccccc4N(c4ccccc4)C32[C@H]2C(=O)NC(=O)[C@@H]12 (stereo not given in full) | > 100 µM | > 100 µM | > 100 µM | > 100 µM | > 100 µM | > 100 µM | – | > 100 µM | – | – | – | – | – | –
C#CCn1c(=O)c2cccnc2n(CC#C)c1=O | > 100 µM | > 100 µM | > 100 µM | > 100 µM | > 100 µM | > 100 µM | > 100 µM | > 100 µM | – | – | – | – | – | –
COC1=CC(=O)OC(/C=C(C)/C=C/C2=C(C)CCCC2(C)C)C1 (stereo not given) | > 100 µM | – | > 100 µM | > 100 µM | > 100 µM | > 100 µM | > 100 µM | > 100 µM | – | – | – | – | – | –
COC(=O)c1nc(C(=O)OC)c2c([nH]c3ccccc32)c1C(=O)OC | > 100 µM | – | – | > 100 µM | – | – | > 100 µM | > 100 µM | – | – | – | – | – | –
CC(=O)N(CCN1C(=O)c2ccccc2C1=O)CCN1C(=O)c2ccccc2C1=O | > 100 µM | > 100 µM | > 100 µM | > 100 µM | > 100 µM | > 100 µM | > 100 µM | > 100 µM | – | – | – | – | – | –
OCCCc1cnco1 | > 100 µM | > 100 µM | > 100 µM | > 100 µM | > 100 µM | – | > 100 µM | > 100 µM | – | – | – | – | – | –
CC(=O)Oc1c(Br)ccc2cc(C(Br)Br)c(C(=O)c3ccccc3)nc12 | 34.4 µM | – | 12.9 µM | 40.8 µM | 44.3 µM | 14.8 µM | 37.5 µM | 31.9 µM | – | – | – | – | – | –
CC(=O)SC(SC(C)=O)SC(C)=O | > 100 µM | – | – | > 100 µM | > 100 µM | 45.2 µM | > 100 µM | > 100 µM | – | – | – | – | – | –
Fc1ccc(C2SCc3nc4ccccc4n32)cc1F (stereo not given) | > 100 µM | 36.7 µM | > 100 µM | 76.7 µM | > 100 µM | 61.7 µM | 81.9 µM | 82.3 µM | – | – | – | – | – | –
O=[N+]([O-])c1ccc(/C(Cl)=C/c2ccc(/C=C(\Cl)c3ccc([N+](=O)[O-])cc3[N+](=O)[O-])cc2)c([N+](=O)[O-])c1 | > 100 µM | > 100 µM | > 100 µM | > 100 µM | > 100 µM | > 100 µM | > 100 µM | > 100 µM | – | – | – | – | – | –
CCCCN(CCCC)CC(C(=O)Nc1ccc([N+](=O)[O-])cc1[N+](=O)[O-])/C(C)=N\NC(=O)C[N+](C)(C)C (stereo not given) | > 100 µM | 73.8 µM | > 100 µM | > 100 µM | > 100 µM | > 100 µM | > 100 µM | > 100 µM | – | – | – | – | – | –
NC(=S)N/N=C(\CCC(=O)Nc1ccccc1[N+](=O)[O-])CC(=O)c1ccco1 | > 100 µM | > 100 µM | > 100 µM | > 100 µM | > 100 µM | > 100 µM | > 100 µM | > 100 µM | – | – | – | – | – | –
COc1cc(C2C(C(=O)O)=C(COC(C)=O)Oc3cc4c(cc32)OCO4)cc(OC)c1OC(C)=O (stereo not given) | > 100 µM | > 100 µM | > 100 µM | > 100 µM | > 100 µM | – | > 100 µM | > 100 µM | – | – | – | – | – | –
O=C(O)CCC1CCc2cccc(OCC(=O)O)c2C1=O (stereo not given) | > 100 µM | > 100 µM | > 100 µM | > 100 µM | > 100 µM | – | > 100 µM | > 100 µM | – | – | – | – | – | –
C=C1C(=O)c2cc3c(cc2C(c2cc(OC)c(OC)c(OC)c2)[C@@H]1C(=O)O)OCO3 (stereo not given in full) | – | > 100 µM | > 100 µM | > 100 µM | > 100 µM | > 100 µM | > 100 µM | > 100 µM | – | – | – | – | – | –
CCc1cccc(CC)c1NC(=O)CC1SC(N)=NC1=O (stereo not given) | > 100 µM | > 100 µM | – | > 100 µM | > 100 µM | > 100 µM | > 100 µM | > 100 µM | – | – | – | – | – | –
Cn1c2cc([N+](=O)[O-])ccc2c(=O)c2c(O)cc3c(c21)C=CC(C)(C)O3 | – | > 100 µM | > 100 µM | > 100 µM | > 100 µM | > 100 µM | > 100 µM | 89.1 µM | – | – | – | – | – | –
C=C(COC(C)=O)CC(/C=C(\C)CC/C=C(\C)CO)OC(C)=O (stereo not given) | > 100 µM | – | – | > 100 µM | > 100 µM | > 100 µM | > 100 µM | > 100 µM | – | – | – | – | – | –
O=C([O-])CCc1ccccc1.O=C([O-])CCc1ccccc1.O=C([O-])CCc1ccccc1.O=C([O-])CCc1ccccc1.[Mo+2].[Mo+2] | – | > 100 µM | > 100 µM | > 100 µM | > 100 µM | – | > 100 µM | > 100 µM | > 100 µM | > 100 µM | > 100 µM | > 100 µM | > 100 µM | > 100 µM
